Experimental data: US20220347182A1, “METHODS AND COMPOSITIONS FOR THE TREATMENT OF OSTEOARTHRITIS” (The Board of Trustees of the Leland Stanford Junior …, priority 2019, published 2022)
Entries after “also recorded” stand apart in the source; their conditions may differ.

How the values were obtained:
OA chondrocytes [1] = experiment: Human 62-plex Luminex array of secretome after drug treatment; format: cell-based; conditions: for CCL2 secretion / CCL7 secretion: 48 hours vs DMSO/control, 50 μM JNK Inhibitor II, 25 μM BMS-345541, 50 μM SB 431542, 0.5 mM IBMX, combination compared to JNK inhibitor alone
Experimental: Next, experiments were conducted to explore the functional effects of inhibiting these newly identified Inf-A cells in OA cartilage by capitalizing on their distinct signalling through JNK. Chondrocytes derived from 6 patients were cultured for 48-hours in the presence of JNK II inhibitor and the secretome was analyzed via 62 antibody human Luminex panels. Across all six patients, a variety of cytokines were altered, many trending toward significance. […] CCL2 and 7 are well-established chemoattractants for monocytes and are known to be altered during OA progression (see for example Ref 28). Genetic deletions of CCL2 and its receptor CCR2 prevent the development of surgical OA, further underscoring the importance of CCL2 as a key modulator in pathology (see for example Ref. 28). […] As a complementary approach, SMAD1/5, the other exclusive signaling pathway of the Inf-A cells was inhibited using an ALK inhibitor. ALK receptors are the most common upstream target of SMAD1/5 signaling in OA (See for example Ref. 31).
(§1) OA cells were seeded at high density in 12-well plates and treated with control (DMSO) or drug next day for 48 hours. Drug doses were determined based on prior literature and validation-: 0.5 mM 3-Isobutyl-1-methylxanthine (IBMX, Sigma 15879) (See for example Ref. 33), 50 μM JNK Inhibitor II (Calbiochem 420119), 25 μM NFK-B inhibitor BMS-345541 (Sigma B9935) (See for example Ref 30, 43), 50 μM Alk inhibitor, SB 431542 hydrate (Sigma S4317 (See for example Ref. 44, 45) and 25 uM Kartogenin (Sigma SML0370) (See for example Ref. 24-26) were used with appropriate dilution in DMSO.
Cell culture supernatants were collected and spun down at 10,000×g for 10 min at 4° C. to remove any cells or cell debris and then snap frozen in liquid nitrogen, before performing the assay. This assay was performed in the Human Immune Monitoring Center at Stanford University. Human 62-plex kits were purchased from eBiosciences/Affymetrix and used according to the manufacturer's recommendations with modifications as described below. Briefly, beads were added to a 96-well plate and washed in a Biotek ELx405 washer. Undiluted samples were added to the plate containing the mixed antibody-linked beads and incubated at room temperature for 1 hour followed by overnight incubation at 4° C. with shaking. Cold and room temperature incubation steps were performed on an orbital shaker at 500-600 rpm. Following the overnight incubation plates were washed in a Biotek ELx405 washer and then biotinylated detection antibody added for 75 minutes at room temperature with shaking. Plate was washed as above and streptavidin-PE was added. After incubation for 30 minutes at room temperature wash was performed as above and reading buffer was added to the wells. Each sample was measured in duplicate. Plates were read using a Luminex 200 instrument with a lower bound of 50 beads per sample per cytokine. Custom assay Control beads by Radix Biosolutions were added to all wells.

OA chondrocytes [2] = experiment: RT-qPCR gene expression after drug treatment; format: cell-based, human; conditions: 48 hours; for MMP13 expression: OA patients n=3
Experimental: Cells for RNA extraction were collected in RNA lysis buffer (Zymo Research) and processed according to the manufacturer's specifications for the Quick-RNA MicroPrep Kit (Zymo Research, R1051), including the optional DNAse1 digestion. RNA quality and quantity was measured using the Nanodrop 1000 Spectrophotometer. All samples had A260/280 scores between 1.6-1.8.
[…] of RNA from each sample was reversed transcribed into cDNA using the High Capacity cDNA Reverse Transcription Kit (Applied Biosystems, 4368813). Quantitative PCR was performed using TaqMan gene-specific expression assays, FAM-labeled, for metalloproteinase 3, 9, a 13 (Hs00233962_m1, Hs00957562_m1, Hs00233992_m1), with a universal mastermix (Applied Biosystems, 4369016). Gene expression levels were normalized with FAM-labeled Actin-beta (Hs01060665_g1).
For Tfam, CD24 and PGC1a, we utilized the SybrGreen mastermix (Applied Biosystems, A25742) according to manufacturer's specifications. Primer sequences: Tfam_F: 5′-GCTCAGAACCCAGATGCA AAA-3′, Tfam_R 5′-AGGAAGTTCCCTCCAACGC-3′, PGCla_F: 5′-[…]-3′, PGC1a_R: 5′-[…]-3′, CD24_F: 5′-TACCCACGCAGATTTATT-3′, CD24_R: 5′-AGA GTGAGACCACGAAGA-3′, Actin_F 5′-CACCAACTGGGACGACAT-3′, Actin_R: 5′-ACAGCCTGGATAGCAACG-3′. qPCR reactions included a 2-minute incubation at 50° C. to inactivate previous amplicons with uracil-DNA glycosylase, followed by a 10-minute incubation at 95° C. to activate the Taq polymerase. The amplification cycle, consisting of 15 seconds at 95° C., and 1 minute at 60° C., was repeated 40 times. The relative expression levels were determined using the ΔCt method (CT gene of interest−CT internal control−Actin) and relative gene expression is calculated using 2−ΔCt method and plotted.
as §1

[3] = system: post-traumatic osteoarthritis (PTOA); experiment: Mouse model of post-traumatic osteoarthritis (tibial loading), OARSI histological scoring; format: in vivo, wildtype C57BL mice; conditions: 50 uM, 8 weeks post-injury vs control; for OA progression: intra-articular, 2 injections every week starting 1 week after tibial loading
Experimental: Using a mouse model of post-traumatic osteoarthritis (PTOA) wherein mechanical loading can lead to onset and progression of OA (Christiansen et al. 2012), Applicant tested if early intervention with small molecule modulators of the Inf A populations can modulate the onset or progression of OA in vivo. For these experiments, wildtype C57BL mice were injected with (a) control or (b) Inf-A inhibitor (JNK II inhibitor) OA initiation to test whether these putative modulations can be therapeutic in OA. The injections were given starting 1 week after tibial loading and at a frequency of 2 injections every week to ensure their efficacy. For histological assessment, the OARSI scoring criteria was utilized to grade the OA severity with the score of 0-6 grades ranging from intact cartilage to erosion and deformation of cartilage/bone. For the quantification of OA development in each control or injured joint, 6 sagittal sections (4 μm thickness) spaced 50 μm are typically cut and stained in order to cover the whole joint compartment. A maximum score for the overall section (both tibial plateau and femoral condyle) is obtained after assigning the most severe damage score for each section and averaging the scores; a summit score (sum of the calculated scores) is calculated as a measure of the prevalent damage over the whole joint.

OA chondrocytes [4] = experiment: cyTOF profiling of CPC cluster abundance after kartogenin treatment; format: cell-based, human; conditions: 25 uM kartogenin vs DMSO, 48 hours
Text: Experiments were undertaken to understand how the application of a pro-regenerative drug would affect this CPC landscape, specifically the pro-inflammatory CPCs four in Group C. Kartogenin (KGN) was originally identified in a screen to expand mesenchymal stem cells and has since been shown in multiple studies to be a pro-chondrogenic modulator of OA progression in animal models (See for example Ref. […]). One patient from Group C (OA15) and one patient from Group A (OA5) were utilized. One patient from Group A (OA5) and one patient from Group C (OA15) were treated with kartogenin or control (DMSO) for 48 hours, fixed, stained and profiled by cyTOF as previously described. […] The treatment additionally expanded low-inflammation clusters 7 and 11 in the Group A patient, where they already appeared overrepresented, while these clusters were not expanded in the Group C patient. Furthermore, kartogenin reduced pro-inflammtory clusters 9, 12 in both the patients, though to a greater degree in the Group C patient enriched in those subtypes (FIG. 3G). Overall, kartogenin appears to expand normal-like and low inflammation CPC clusters (2, 10, 7 and 11) while reducing the high inflammation CPC III clusters (12 and 16).
as §1
OA cells were cultured to confluence in 10 cm dishes. On the collection day, cells were stained with 25 μM Idu for 15 min at 37° C. in the cell incubator, then with 0.5 μM cisplatin for 5 min at RT. Cells were then lifted with 0.25% Trypsin-EDTA (Gibco) for 15 min at 37° C. Trypsin was quenched using media containing 10% FBS and cell were washed 3 times with PBS to remove any trace amounts of trypsin. Cells were fixed after straining through a […] strainer in 1.6% PFA for 10 min at RT. Cells were washed 4 times with cells staining media, counted and frozen in 1 million cell aliquots in a small amount of cell staining media at −80° C. To stain, cells were thawed on ice and barcoded using the Cell-ID 20-plex Pd Barcoding Kit (Fluidigm) according to the manufacturer's specifications. After barcoding, cells were labeled as previously described (See for example Ref 13). Briefly, all barcoded samples were combined into one FACs tube, and washed 3× with cell staining media and stained with the cell surface antibodies for 30 minutes at RT according to the concentrations in Table 2. Cells were then was 2× with cell staining media and permeabilized with 1 mL of cold methanol added dropwise with continuous gentle vortexing. Cells were incubated for 10 min on ice, with gentle vortexing every 2-3 minutes to avoid cell clumping, then washed in cell staining media and stained with the intracellular antibodies for 30 minutes at RT. After 2× washed with cell staining media, cells were resuspended in 1.6% PFA with Cell-ID Intercalator-Ir (Fluidigm) used at 1:2000. Cells were measured using the cyTOF 2 (Fluidigm) and injected using the supersampler. […]

[5] = 48 hours vs DMSO, 50 μM SB 431542, combination compared to JNK inhibition alone

## NC(=O)c1ccc(-c2nc(-c3ccc4c(c3)OCO4)c(-c3ccccn3)[nH]2)cc1 [ALK inhibitor, SB 431542 hydrate]
OA chondrocytes [1]
  CCL2 secretion: decrease
  CCL7 secretion: decrease
OA chondrocytes [1]; [5]
  CXCL1 secretion: decrease
  CXCL5 secretion: decrease

## Cc1ccc2nc(NCCN)c3ncc(C)n3c2c1 [BMS-345541]
OA chondrocytes [1]
  CCL2 secretion: did not affect
  CCL7 secretion: did not affect

## CC(C)Cn1c(=O)n(C)c(=O)c2[nH]cnc21 [IBMX, 3-Isobutyl-1-methylxanthine]
OA chondrocytes [1]
  CCL2 secretion: modest downregulation
  CCL7 secretion: modest downregulation
OA chondrocytes [2]; 0.5 mM IBMX
  upregulation of CD24 expression: 2-4 fold
OA chondrocytes [2]
  MMP13 expression: no consistent effect; also recorded: No significant differences
OA chondrocytes [2]; IBMX
  Pgc1a gene expression: increased
  Tfam gene expression: increased

## O=C1c2ccccc2-c2n[nH]c3cccc1c23 [JNK II inhibitor]
OA chondrocytes [1]
  CCL2 secretion: significant decrease
  CCL7 secretion: significant decrease
OA chondrocytes [1]; listed as INK inhibitor
  CCL2 secretion: overall reduction
  CCL7 secretion: overall reduction
OA chondrocytes [2]
  MMP gene expression: remained unaffected
  MMP13 expression: No significant differences
[3]
  max score (OARSI): reduced
  summit score (OARSI): reduced
  OA progression: slowed
[3]; listed as JNKII inhibitor
  OA progression: slows down progression

## O=C(O)c1ccccc1C(=O)Nc1ccc(-c2ccccc2)cc1 [Kartogenin]
OA chondrocytes [4]; Group A patient (OA5)
  abundance of low-inflammation clusters 7 and 11: expanded
OA chondrocytes [4]; Group C patient (OA15)
  abundance of low-inflammation clusters 7 and 11: not expanded
OA chondrocytes [4]; both patients
  abundance of pro-inflammatory clusters 9, 12: reduced
OA chondrocytes [4]; both patients (OA5 Group A, OA15 Group C)
  abundance of cluster 2 (CPC I) and cluster 10 (CPC II): selectively expanded
OA chondrocytes [4]; overall summary
  abundance of high inflammation CPC III clusters (12 and 16): reducing
